Test results reported in PubChem BioAssay (NCI).
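Test compounds were applied to cells in 96-well plates for 48 hours at 5 doses. TGI is the concentration that stops growth completely.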

Legend:
Experiment in all cases: growth of human tumour cells (NCI), 48 h
[1] = tested on: MDA-N
[2] = tested on: RPMI-8226 leukemia
[3] = tested on: SK-MEL-2 melanoma
[4] = tested on: HT29 colon
[5] = tested on: SK-OV-3 ovarian
[6] = tested on: MDA-MB-435
[7] = tested on: SNB-75 CNS
[8] = tested on: M14 melanoma
[9] = tested on: IGROV1 ovarian
[10] = tested on: COLO 205 colon
[11] = tested on: BT-549 breast
[12] = tested on: U251 CNS
[13] = tested on: 786-0 renal
[14] = tested on: SK-MEL-5 melanoma
[15] = tested on: OVCAR-8 ovarian
[16] = tested on: UO-31 renal
[17] = tested on: A498 renal

For S=C(Nc1ccc2c(c1)oc1ccccc12)c1cccnc1, the TGI [1] was over 100 µM, the TGI [2] was over 100 µM and the TGI [3] was over 100 µM. For the same compound, the TGI [4] was over 100 µM, the TGI [5] was 40.7 µM and the TGI [6] was over 100 µM. It also gave a TGI [7] of 49.7 µM, a TGI [8] of over 100 µM and a TGI [9] of over 100 µM. For the same compound, the TGI [10] was over 100 µM, the TGI [11] was over 100 µM and the TGI [12] was 89.7 µM. For the same compound, the TGI [13] was over 100 µM, the TGI [14] was over 100 µM and the TGI [15] was over 100 µM. For the same compound, the TGI [16] was over 100 µM.

With O=C1c2ccccc2C2(c3ccc(Cl)cc3)N[C@H]3CCCC[C@@H]3N12 (some centres not stated) the TGI [1] was over 100 µM, the TGI [2] was over 100 µM and the TGI [17] was over 100 µM. For the same compound, the TGI [4] was over 100 µM, the TGI [5] was over 100 µM and the TGI [6] was over 100 µM. It also gave a TGI [7] of over 100 µM, a TGI [9] of over 100 µM and a TGI [10] of over 100 µM. It also gave a TGI [11] of over 100 µM, a TGI [12] of over 100 µM and a TGI [13] of over 100 µM. For the same compound, the TGI [14] was over 100 µM, the TGI [15] was over 100 µM and the TGI [16] was over 100 µM.

Work on CC(=O)OCC1OC(n2c3c(cc(C#N)c2=S)CCCCC3)C(OC(C)=O)C(OC(C)=O)C1OC(C)=O (configuration not stated) yielded a TGI [1] of over 100 µM, a TGI [2] of over 100 µM and a TGI [3] of over 100 µM. It also gave a TGI [17] of over 100 µM, a TGI [4] of over 100 µM and a TGI [6] of over 100 µM. For the same compound, the TGI [7] was over 100 µM, the TGI [8] was over 100 µM and the TGI [9] was over 100 µM. It also gave a TGI [10] of over 100 µM, a TGI [11] of over 100 µM and a TGI [12] of over 100 µM. For the same compound, the TGI [13] was over 100 µM, the TGI [14] was over 100 µM and the TGI [15] was over 100 µM. The TGI [16] was over 100 µM.

Work on Cc1cc(S(=O)(=O)Nc2nc3cc(-c4ccc(Cl)cc4)sc3c(=O)n2N)c(S)cc1Cl yielded a TGI [1] of over 100 µM, a TGI [2] of over 100 µM and a TGI [3] of over 100 µM. It also gave a TGI [4] of over 100 µM, a TGI [5] of over 100 µM and a TGI [6] of over 100 µM. The TGI [7] was over 100 µM, the TGI [8] was over 100 µM and the TGI [9] was over 100 µM. For the same compound, the TGI [10] was 56.1 µM, the TGI [11] was over 100 µM and the TGI [12] was over 100 µM. For the same compound, the TGI [13] was over 100 µM, the TGI [14] was over 100 µM and the TGI [15] was over 100 µM. It also gave a TGI [16] of over 100 µM.

Compound CC(C)=CCNc1ncnc2c1ncn2CCC#N has a TGI [1] of over 100 µM, a TGI [2] of over 100 µM and a TGI [17] of over 100 µM. For the same compound, the TGI [4] was over 100 µM, the TGI [5] was over 100 µM and the TGI [6] was over 100 µM. For the same compound, the TGI [7] was over 100 µM, the TGI [8] was over 100 µM and the TGI [9] was over 100 µM. The TGI [10] was over 100 µM, the TGI [11] was over 100 µM and the TGI [12] was over 100 µM. For the same compound, the TGI [13] was over 100 µM, the TGI [14] was over 100 µM and the TGI [15] was over 100 µM. For the same compound, the TGI [16] was over 100 µM.

Compound O=C1C(=Cc2ccccc2O)N=C(c2ccccc2)N1n1c(-c2ccccc2)nc2ccccc2c1=O has a TGI [1] of over 100 µM, a TGI [2] of over 100 µM and a TGI [17] of 64.1 µM. For the same compound, the TGI [4] was over 100 µM, the TGI [5] was over 100 µM and the TGI [6] was over 100 µM. It also gave a TGI [7] of 87.8 µM, a TGI [8] of 57.1 µM and a TGI [9] of over 100 µM. It also gave a TGI [10] of over 100 µM, a TGI [11] of 89.9 µM and a TGI [13] of over 100 µM. For the same compound, the TGI [14] was 41.7 µM, the TGI [15] was over 100 µM and the TGI [16] was 86.5 µM.

With CN(C)c1ccc(C2SCC(=O)N2c2ccc(Oc3ccc(Cl)cc3)c(Cl)c2)cc1 (configuration not stated) the TGI [1] was 58.5 µM, the TGI [2] was 58.1 µM and the TGI [3] was 54.1 µM. For the same compound, the TGI [4] was 39.8 µM, the TGI [5] was 60.4 µM and the TGI [6] was 84 µM. It also gave a TGI [7] of 50.9 µM, a TGI [8] of 69 µM and a TGI [9] of 92.5 µM. For the same compound, the TGI [10] was 36.2 µM, the TGI [11] was 48.2 µM and the TGI [12] was 53.9 µM. It also gave a TGI [13] of 41.7 µM, a TGI [14] of 36.8 µM and a TGI [15] of 86.4 µM. It also gave a TGI [16] of 29.6 µM.

COc1ccc2c(cnc3c4cc(OC)c(OC)cc4ccc23)c1 was tested, and the TGI [1] was over 100 µM, the TGI [3] was over 100 µM and the TGI [17] was over 100 µM. It also gave a TGI [4] of over 100 µM, a TGI [5] of over 100 µM and a TGI [6] of over 100 µM. For the same compound, the TGI [8] was over 100 µM, the TGI [9] was over 100 µM and the TGI [10] was over 100 µM. For the same compound, the TGI [11] was over 100 µM, the TGI [12] was over 100 µM and the TGI [13] was over 100 µM. The TGI [14] was over 100 µM, the TGI [15] was over 100 µM and the TGI [16] was over 100 µM.

C=C1CN2CC(=C)CN(C1)CS(=O)(=O)N1CC(=C)CN(CC(=C)C1)S(=O)(=O)N1CC(=C)CN(CC(=C)C1)S(=O)(=O)C2 was tested, and the TGI [1] was over 100 µM, the TGI [2] was over 100 µM and the TGI [3] was over 100 µM. For the same compound, the TGI [17] was over 100 µM, the TGI [4] was over 100 µM and the TGI [6] was over 100 µM. It also gave a TGI [8] of over 100 µM, a TGI [9] of over 100 µM and a TGI [10] of over 100 µM. It also gave a TGI [11] of over 100 µM, a TGI [12] of over 100 µM and a TGI [13] of 58.9 µM. It also gave a TGI [14] of 48 µM, a TGI [15] of over 100 µM and a TGI [16] of over 100 µM.

[N-]=[N+]=NC1=C(c2ccccn2)C(=O)c2cccc3cccc1c23 was tested, and the TGI [1] was over 100 µM, the TGI [2] was over 100 µM and the TGI [3] was over 100 µM. The TGI [17] was 31.5 µM, the TGI [4] was over 100 µM and the TGI [5] was over 100 µM. For the same compound, the TGI [6] was over 100 µM, the TGI [7] was over 100 µM and the TGI [8] was over 100 µM. The TGI [9] was over 100 µM, the TGI [10] was over 100 µM and the TGI [11] was 67.2 µM. It also gave a TGI [12] of over 100 µM, a TGI [13] of over 100 µM and a TGI [14] of 22.1 µM. The TGI [16] was 36.1 µM.

COc1cccc(/C=N/n2c(C)n[nH]c2=O)c1 gave a TGI [1] of over 100 µM, a TGI [2] of over 100 µM and a TGI [3] of over 100 µM. It also gave a TGI [17] of over 100 µM, a TGI [4] of over 100 µM and a TGI [5] of over 100 µM. It also gave a TGI [6] of over 100 µM, a TGI [7] of over 100 µM and a TGI [8] of over 100 µM. The TGI [10] was over 100 µM, the TGI [11] was over 100 µM and the TGI [12] was over 100 µM. For the same compound, the TGI [13] was over 100 µM, the TGI [15] was over 100 µM and the TGI [16] was over 100 µM.

Compound CC(C)(C)C(=O)CC1=Nc2ccccc2SC1(O)CC(=O)C(C)(C)C (configuration not stated) has a TGI [1] of over 100 µM, a TGI [2] of 25.7 µM and a TGI [3] of 32 µM. For the same compound, the TGI [17] was over 100 µM, the TGI [4] was 31.5 µM and the TGI [5] was 53.6 µM. For the same compound, the TGI [6] was 64.5 µM, the TGI [8] was 81.9 µM and the TGI [9] was 61.2 µM. It also gave a TGI [10] of 29.8 µM, a TGI [11] of 51.1 µM and a TGI [12] of over 100 µM. For the same compound, the TGI [13] was 68.3 µM, the TGI [14] was 62.7 µM and the TGI [15] was 57 µM. It also gave a TGI [16] of 44.2 µM.
